Blank lines part the entries; values can stand above or below the compound they belong to.
Legend:
[1] = LD50 in mouse, i.v. (Table 3); assay type: in vivo; settings: in vivo, iv, 14 days after application, solution with 300 mg J/ml
Experimental: (§1) LD50 in mouse, i.v. (14 days after application) of solution
(§2) with a content of 300 mg J/ml.

[2] = water solubility; assay type: physicochemical; settings: for solubility: water; for solubility (in words): in water
Description: The configuration of the α-amino acid moiety may be arbitrary. The type of amino acid residue influences to a degree the solubility of the compound of the invention in water. For example, […]

[3] = tested on: mouse; experiment: LD50 in mouse, i.v. (Table 3); assay type: in vivo
Experimental: as §1, §2

[4] = viscosity of aqueous preparations (Table 1); assay type: physicochemical
Description: The derivatives of compounds (I) of the invention which show a good solubility in water generally show viscosity values which, as can be expected, are dependent from the number and position of the hydroxy groups, as well as from the configuration of the amino acid residue. Representative compounds of the invention are shown in the Table 1, with their viscosity values.
Viscosity data in dependency from the type of amino acid and
the concentration of the preparation.

[5] = heat stability of a 67,9% aq. solution at different temperatures and times (Table 2); assay type: physicochemical
Description: Behaviour of a 67,9% aq. solution of (II) at different temperatures

Structure (SMILES): CC(=O)Nc1c(I)c(NC(C)=O)c(I)c(C(=O)O)c1I [sodium-meglumine-diatrizoate, reference compound]
- LD50 at 336 h [1]: 12000 to 14000 mg/kg

Structure (SMILES): CC(=O)Nc1c(I)c(NC(C)=O)c(I)c(C(=O)NCCC(=O)N(C)C[C@H](O)[C@@H](O)[C@H](O)[C@H](O)CO)c1I [IV, N,N-[(3,5-diacetamido-2,4,6-triiodobenzoyl)-β-alanine]-N-methyl glucamide]
- solubility ([2]; moderately soluble): ≤ 200 mg/mL

Structure (SMILES): CC(=O)Nc1c(I)c(NC(C)=O)c(I)c(C(=O)O)c1I [lysine-diatrizoate, reference compound]
- LD50 ([3]; i.v., 14 days after application, solution with 300 mg J/ml, 20160 min): 14000 to 18000 mg/kg

Structure (SMILES): CC(=O)Nc1c(I)c(NC(C)=O)c(I)c(C(=O)NCCCC(=O)N(C)C[C@H](O)[C@@H](O)[C@H](O)[C@H](O)CO)c1I [V, N,N-[(3,5-diacetamido-2,4,6-triiodobenzoyl)-γ-aminobutyric acid]-N-methyl glucamide]
- solubility ([2]; moderately soluble): ≤ 200 mg/mL

Structure (SMILES): CC(=O)Nc1c(I)c(NC(C)=O)c(I)c(C(=O)N(C)CC(=O)N(C)C[C@H](O)[C@@H](O)[C@H](O)[C@H](O)CO)c1I [II, N,N-[(3,5-diacetamido-2,4,6-triiodobenzoyl)-sarcosine]-N-methyl glucamide]
- Viscosity ([4]; 20° C., 100 mg J/ml): 2.16 cP
- Viscosity ([4]; 20° C., 150 mg J/ml): 3.50 cP
- Viscosity ([4]; 20° C., 200 mg J/ml): 5.74 cP
- Viscosity ([4]; 20° C., 250 mg J/ml): 10.84 cP
- Viscosity ([4]; 20° C., 300 mg J/ml): 18.88 cP
- Viscosity ([4]; 37° C., 100 mg J/ml): 1.48 cP
- Viscosity ([4]; 37° C., 150 mg J/ml): 2.22 cP
- Viscosity ([4]; 37° C., 200 mg J/ml): 3.32 cP
- Viscosity ([4]; 37° C., 250 mg J/ml): 6.20 cP
- Viscosity ([4]; 37° C., 300 mg J/ml): 9.22 cP
- Color ([5]; 30 min, 110 °C.): colorless
- Iodide ([5]; 30 min, 110 °C.): 2.63 mg J/100 ml
- pH ([5]; 30 min, 110 °C.): 7.85
- Color ([5]; 30 min, 120 °C.): colorless
- Iodide ([5]; 30 min, 120 °C.): 3.73 mg J/100 ml
- pH ([5]; 30 min, 120 °C.): 7.80
- Color ([5]; 60 min, 110 °C.): colorless
- Iodide ([5]; 60 min, 110 °C.): 3.72 mg J/100 ml
- pH ([5]; 60 min, 110 °C.): 7.75
- Color ([5]; base solution): colorless
- Iodide ([5]; base solution): 1.78 mg J/100 ml
- pH ([5]; base solution): 7.85
- LD50 at 336 h [1]: 36000 mg/kg
- toxicity (in words) ([3]; in vivo): low toxicity
- solubility (in words) [2]: superior in respect to solubility
- solubility ([2]; very soluble): > 1000 mg/mL

Structure (SMILES): CC(=O)Nc1c(I)c(NC(C)=O)c(I)c(C(=O)N[C@@H](C)C(=O)N(C)C[C@H](O)[C@@H](O)[C@H](O)[C@H](O)CO)c1I [III, N,N-[(3,5-diacetamido-2,4,6-triiodobenzoyl)-L-alanine]-N-methyl glucamide]
- solubility ([2]; soluble): ≤ 500 mg/mL

Further lines, results first:

- solubility (in words) [2]: superior in respect to solubility
- solubility ([2]; moderately soluble): ≤ 200 mg/mL
- solubility ([2]; very soluble): > 1000 mg/mL
Structure (SMILES): CC(=O)Nc1c(I)c(NC(C)=O)c(I)c(C(=O)N[C@@H](CCC(=O)N(C)C[C@H](O)[C@@H](O)[C@H](O)[C@H](O)CO)C(=O)N(C)C[C@H](O)[C@@H](O)[C@H](O)[C@H](O)CO)c1I [XI, N,N-[(3,5-diacetamido-2,4,6-triiodobenzoyl)-L-glutamic acid]-bis-N-methyl glucamide]

- Viscosity ([4]; 20° C., 200 mg J/ml): 10.65 cP
- Viscosity ([4]; 20° C., 250 mg J/ml): 25.38 cP
- Viscosity ([4]; 37° C., 200 mg J/ml): 5.84 cP
- Viscosity ([4]; 37° C., 250 mg J/ml): 12.23 cP
- solubility (in words) [2]: superior in respect to solubility
- solubility ([2]; very soluble): > 1000 mg/mL
Structure (SMILES): CC(=O)Nc1c(I)c(NC(C)=O)c(I)c(C(=O)NC(CC(=O)N(C)C[C@H](O)[C@@H](O)[C@H](O)[C@H](O)CO)C(=O)N(C)C[C@H](O)[C@@H](O)[C@H](O)[C@H](O)CO)c1I (mixture of isomers) [X, N,N-[(3,5-diacetamido-2,4,6-triiodobenzoyl)-DL-aspartic acid]-bis-N-methyl glucamide]

- solubility ([2]; moderately soluble): ≤ 200 mg/mL
Structure (SMILES): CC(=O)Nc1c(I)c(NC(C)=O)c(I)c(C(=O)NCCCC[C@H](NC(=O)C(C)O)C(=O)N(C)C[C@H](O)[C@@H](O)[C@H](O)[C@H](O)CO)c1I (stereo partly drawn) [XII, N,N-[α-lactyl-ε-(3,5-diacetamido-2,4,6-triiodobenzoyl)-L-lysine]-N-methyl glucamide]

- Viscosity ([4]; 20° C., 100 mg J/ml): 2.90 cP
- Viscosity ([4]; 20° C., 150 mg J/ml): 5.15 cP
- Viscosity ([4]; 20° C., 200 mg J/ml): 11.14 cP
- Viscosity ([4]; 20° C., 250 mg J/ml): 33.58 cP
- Viscosity ([4]; 20° C., 300 mg J/ml): 88.85 cP
- Viscosity ([4]; 37° C., 100 mg J/ml): 1.84 cP
- Viscosity ([4]; 37° C., 150 mg J/ml): 3.04 cP
- Viscosity ([4]; 37° C., 200 mg J/ml): 6.06 cP
- Viscosity ([4]; 37° C., 250 mg J/ml): 15.96 cP
- Viscosity ([4]; 37° C., 300 mg J/ml): 35.41 cP
- solubility (in words) [2]: superior in respect to solubility
- solubility ([2]; very soluble): > 1000 mg/mL
Structure (SMILES): CC(=O)Nc1c(I)c(NC(C)=O)c(I)c(C(=O)N[C@@H](CC(=O)N(C)C[C@H](O)[C@@H](O)[C@H](O)[C@H](O)CO)C(=O)N(C)C[C@H](O)[C@@H](O)[C@H](O)[C@H](O)CO)c1I [IX, N,N-[(3,5-diacetamido-2,4,6-triiodobenzoyl)-L-aspartic acid]-bis-N-methyl glucamide]

- Viscosity ([4]; 20° C., 100 mg J/ml): 2.13 cP
- Viscosity ([4]; 20° C., 150 mg J/ml): 3.11 cP
- Viscosity ([4]; 20° C., 200 mg J/ml): 5.15 cP
- Viscosity ([4]; 20° C., 250 mg J/ml): 9.43 cP
- Viscosity ([4]; 20° C., 300 mg J/ml): 20.05 cP
- Viscosity ([4]; 37° C., 100 mg J/ml): 1.84 cP
- Viscosity ([4]; 37° C., 150 mg J/ml): 1.95 cP
- Viscosity ([4]; 37° C., 200 mg J/ml): 3.04 cP
- Viscosity ([4]; 37° C., 250 mg J/ml): 5.16 cP
- Viscosity ([4]; 37° C., 300 mg J/ml): 9.71 cP
- solubility ([2]; soluble): ≤ 500 mg/mL
Structure (SMILES): CC(=O)Nc1c(I)c(NC(C)=O)c(I)c(C(=O)N[C@@H](CO)C(=O)N(C)C[C@H](O)[C@@H](O)[C@H](O)[C@H](O)CO)c1I [VIII, N,N-[(3,5-diacetamido-2,4,6-triiodobenzoyl)-L-serine]-N-methyl glucamide]
